For 18 compounds, inhibition results are on record in patent publication US7569585B2, “1, 5-diaminopentan-3-ol compounds and related treatment methods” (Gruenenthal GmbH, priority 2001, dated 2009).

For this assay, the target named is T1, human alpha2A-adrenergic receptor (Homo sapiens, UniProt P08913).
T1 construct: human HT29 cells (RB-HAL2A, NEN, Zaventem, Belgium), which endogenously express the alpha2A-adrenergic receptor; purchased NEN, Zaventem, Belgium RB-HAL2A; host or cells: human HT29 cells (endogenous expression), membrane preparation
T1 sequence (P08913 1-465): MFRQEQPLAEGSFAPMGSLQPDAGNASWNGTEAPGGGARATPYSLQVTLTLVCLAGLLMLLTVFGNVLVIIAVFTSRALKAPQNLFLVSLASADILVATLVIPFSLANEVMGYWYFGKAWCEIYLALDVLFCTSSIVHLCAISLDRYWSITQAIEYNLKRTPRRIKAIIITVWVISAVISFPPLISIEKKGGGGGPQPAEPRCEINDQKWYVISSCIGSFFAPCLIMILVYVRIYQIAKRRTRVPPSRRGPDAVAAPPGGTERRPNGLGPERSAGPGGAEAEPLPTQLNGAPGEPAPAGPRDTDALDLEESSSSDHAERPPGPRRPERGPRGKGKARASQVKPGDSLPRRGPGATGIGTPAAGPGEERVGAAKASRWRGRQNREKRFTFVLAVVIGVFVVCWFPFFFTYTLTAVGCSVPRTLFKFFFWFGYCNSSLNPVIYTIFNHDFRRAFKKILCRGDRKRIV
In words: Binding affinity to human alpha2A-adrenergic receptor ([3H]-MK-912 displacement, HT29 cell membrane preparation). As to conditions: compound concentration 10 NM [sic] (method: 10 μmol/l); displacement of 0.5 nmol/l [3H]-MK-912; HT29 membranes; pH 7.4. As for the experimental part:
Method for Determining the Binding Affinity to Human Alpha2A-adrenergic Receptor
The affinity of the compounds according to the invention to the pain-relevant alpha2A-receptor was investigated as follows.
The receptor affinity of the compounds according to the invention to human alpha2A-adrenergic receptor was determined in a microtiter plate batch. For this purpose, the compounds to be tested were incubated in a concentration of 10 μmol/l with a receptor membrane preparation of human HT29 cells (RB-HAL2A, NEN, Zaventem, Belgium), which endogenously express the alpha2A-adrenergic receptor, at a protein concentration of 40 μg protein/250 μl incubation batch in the presence of 0.5 nmol/l of the radioactively marked ligands [3H]-MK-912 (NET-1059, NEN, Zaventem, Belgium) for 30 minutes, with exclusion of light, at ambient temperature. A 25 mmol/l sodium phosphate buffer at a pH of 7.4 was used as the buffer system. The unspecific bond was determined in the presence of 10 μmol/l phentolamine. After incubation, the microtiter plates were filtered on glass fiber microtiter filter plates (Whatman GF/B, Hassel, Munich) using a Brandel Cell Harvester (MPRI-96T type, Hassel, Munich) and after drying of the glass fiber filter plates and subsequent charging of the plates with 35 μl of a scintillator (Ultima Gold, Canberra-Packard, Freiburg) were measured in a microtiter plate counter (1450 Microbeta Trilux, PerkinElmer-Wallac, Freiburg) after a delay of at least 90 minutes. The glass fiber microtiter filter plates were each pretreated prior to filtration of the incubation plates for 30 minutes with 50 μl per indentation of a 25 mmol/l sodium phosphate buffer supplemented by 0.5% (v/v) polyethylene imine at a pH of 7.4. The percentage inhibition effect of the compounds was calculated as a displacement of the radioactive ligand from its specific bond to the human alpha2A-adrenergic receptor.
Determining the Binding Affinity to Human Alpha2A-adrenergic Receptor
The binding affinities to human alpha2A-adrenergic receptor were determined by the foregoing methods.
In the case of `OC1(Cc2ccc(Cl)cc2Cl)C(CN2CCCCC2)CCCC1CN1CCCCC1` (stereo not drawn) [1-(2,4-dichlorobenzyl)-2,6-bis-piperidin-1-ylmethyl-cyclohexanol], the inhibition at 10 µM is 100%. Take `Cc1ccc(C)c(CC2(O)C(CN3CCCCC3)CCCC2CN2CCCCC2)c1` (stereo not drawn) [1-(2,5-dimethyl-benzyl)-2,6-bis-piperidin-1-ylmethyl-cyclohexanol]: the inhibition at 10 µM came to 100%. Compound `OC1(Cc2c(F)cccc2Cl)C(CN2CCCCC2)CCCC1CN1CCCCC1` (stereo not drawn) [1-(2-chloro-6-fluorobenzyl)-2,6-bis-piperidin-1-ylmethyl-cyclohexanol] returned an inhibition at 10 µM of 68%. The same measure for `OC1(Cc2ccccc2Cl)C(CN2CCCCC2)CCCC1CN1CCCCC1` (stereo not drawn) [1-(2-chlorobenzyl)-2,6-bis-piperidin-1-ylmethyl-cyclohexanol]: 100%.

With `COc1ccccc1C1(O)C(CN2CCCCC2)CCCC1CN1CCCCC1` (stereo not drawn) [1-(2-methoxy-phenyl)-2,6-bis-piperidin-1-ylmethyl-cyclohexanol], the inhibition at 10 µM came out at 30%. The same measure for `Cc1ccccc1CC1(O)C(CN2CCCCC2)CCCC1CN1CCCCC1` (stereo not drawn) [1-(2-methyl-benzyl)-2,6-bis-piperidin-1-ylmethyl-cyclohexanol]: 100%; for `OC1(c2cc(Cl)cc(Cl)c2)C(CN2CCCCC2)CCCC1CN1CCCCC1` (stereo not drawn) [1-(3,5-dichlorophenyl)-2,6-bis-piperidin-1-ylmethyl-cyclohexanol]: 33%; for `OC1(c2ccc(F)c(Cl)c2)C(CN2CCCCC2)CCCC1CN1CCCCC1` (stereo not drawn) [1-(3-chloro-4-fluorophenyl)-2,6-bis-piperidin-1-ylmethyl-cyclohexanol]: 38%. Next, `OC1(Cc2cccc(Cl)c2)C(CN2CCCCC2)CCCC1CN1CCCCC1` (stereo not drawn) [1-(3-chlorobenzyl)-2,6-bis-piperidin-1-ylmethyl-cyclohexanol]: 98%; `OC1(c2cccc(Cl)c2)C(CN2CCCCC2)CCCC1CN1CCCCC1` (stereo not drawn) [1-(3-chlorophenyl)-2,6-bis-piperidin-1-ylmethyl-cyclohexanol]: 51%. The same measure for `OC1(Cc2cccc(F)c2)C(CN2CCCCC2)CCCC1CN1CCCCC1` (stereo not drawn) [1-(3-fluorobenzyl)-2,6-bis-piperidin-1-ylmethyl-cyclohexanol]: 59%; for `OC1(c2cccc(F)c2)C(CN2CCCCC2)CCCC1CN1CCCCC1` (stereo not drawn) [1-(3-fluorophenyl)-2,6-bis-piperidin-1-ylmethyl-cyclohexanol]: 48%.

The compound `COc1cccc(CC2(O)C(CN3CCCCC3)CCCC2CN2CCCCC2)c1` (stereo not drawn) [1-(3-methoxy-benzyl)-2,6-bis-piperidin-1-ylmethyl-cyclohexanol] registered an inhibition at 10 µM of 80%. Next, `Cc1cccc(CC2(O)C(CN3CCCCC3)CCCC2CN2CCCCC2)c1` (stereo not drawn) [1-(3-methyl-benzyl)-2,6-bis-piperidin-1-ylmethyl-cyclohexanol]: 100%; `OC1(c2ccc(Cl)c(C(F)(F)F)c2)C(CN2CCCCC2)CCCC1CN1CCCCC1` (stereo not drawn) [1-(4-chloro-3-trifluoromethyl-phenyl)-2,6-bis-piperidin-1-ylmethyl-cyclohexanol]: 26%. `OC1(Cc2ccc(Cl)cc2)C(CN2CCCCC2)CCCC1CN1CCCCC1` (stereo not drawn) [1-(4-chlorobenzyl)-2,6-bis-piperidin-1-ylmethyl-cyclohexanol] gave an inhibition at 10 µM of 88%. `OC1(Cc2ccc(F)cc2)C(CN2CCCCC2)CCCC1CN1CCCCC1` (stereo not drawn) [1-(4-fluorobenzyl)-2,6-bis-piperidin-1-ylmethyl-cyclohexanol]: at 10 µM the inhibition was 87%. The same measure for `OC1(c2cccc(C(F)(F)F)c2)C(CN2CCCCC2)CCCC1CN1CCCCC1` (stereo not drawn) [2,6-bis-piperidin-1-ylmethyl-1-(3-trifluoromethyl-phenyl)-cyclohexanol]: 56%.
